{
  "source": "patent US10293016B2",
  "about": "“Use of instant asparagus powder in food, medicine and health food” (Q[…] DEVELOPMENT CO., LTD, priority 2013, dated 2019)",
  "key": {"Mouse [1]": {"test_system": "Mouse", "experiment": "Chronic emotional stress-response model (CSM) test, behaviors", "assay_type": "in vivo, rat", "settings": "CSM empty bottle stimulation, dosage 3 mg/Kg, n=10"}, "[2]": {"test_system": "Neurotransmitter in Hippocampus of Rat", "experiment": "CSM test, level of neurotransmitter in hippocampus", "assay_type": "in vivo", "settings": "dosage 3 mg/Kg", "from_the_text": "(§1) The chronic emotional stress-response model takes as an emotional stress-response resource an uncertain stimulation of drinking by an empty bottle, so as to investigate the influence which the emotional stress of 14 days exerts on the behaviors, and neuroendocrine and immune functions of the rats.\nAfter adaptation for one week, the rats were randomly grouped. Except the normal group, the model groups were fed in individual cages and subjected to the uncertain stimulation of drinking by an empty bottle to establish the anxiety stress models. The specific method is as follows: the training of timely feeding water lasts for 7 days, that is, water was being given to the animals for 10 minutes every day at 9:00-9:10 and 17:00-17:10, and at other times, the water bottles were taken away, without water given. After the period of timely feeding water was ended, the stress-response experiment started, wherein the uncertain stimulation of the empty bottle was given once or twice a day in the above two periods of time for two weeks. The normal group was not subjected to any treatment, and was fed with water and food freely. The behaviors observed included attacking (biting or attacking the empty bottle and the cage), exploratory (moving around and visiting the place where the water bottle was located), and grooming behaviors (combing fur and washing face). The specific method was: the 10 minutes of the empty bottle stimulation was equally divided into 10 periods of time, the above-mentioned three types of behaviors of each rat were recorded in each period of time, wherein it was marked as “1” if the behavior appears, otherwise it was marked as “0”. The total score obtained in the observation within 10 minutes was between 0 and 10. […] The average score of the first 3 days and the last 3 days of the 14 observation days was used for statistical analysis. […]\n(§2) The following endocrine levels were detected in the test: (1) plasma cortisol concentration, (2) catecholamine level, (3) 5-hydroxytryptamine level."}, "Mouse [3]": {"test_system": "Mouse", "experiment": "Elevated plus maze model (EPM) test", "assay_type": "in vivo", "from_the_text": "The elevated plus maze has been widely used in anxiety experiments of the small rodent. This system is used to detect the situation of decreasing animals' inherent aversion to a high position and a open field, after using the anxiety drug. The rodent (e.g. rat, mouse), which have the exploratory behavior, will actively explore the open arms after placed in the elevated plus maze, but fear the high and open environment in the open arms. The antianxiety drug increases the open-arm exploratory activities, while the anxiety drug has the opposite effect.\nThe elevated plus maze has a pair of open arms and a pair of closed arms. The animal, after a period of time of adaptation, is rapidly placed in the central platform of the EPM in such a way that its head directly faces one of the open arms. A tracking camera is used to record following: (1) times of entering the open arm (open arm entry, OE) within 5 minutes, wherein it is considered as one time of entering an open arm when all the four paws of the rat have entered any open arm, and meanwhile this entry activity is finished when one paw completely withdraws from this arm; (2) duration of staying in an open arm (open arm time, OT) within 5 minutes, wherein the unit of the duration of staying in an open arm is “second”; (3) times of entering a closed arm (close arm entry, CE) within 5 minutes, wherein it is considered as one time of entering a closed arm when all the four paws of the rat have entered any closed arm; (4) duration of staying in a closed arm (close arm entry, CT) within 5 minutes, wherein the unit of duration of staying in a closed arm is “second”. The following is calculated from (1)-(4), respectively: […]\n(1) the total number of the times of the open arm entry and the closed arm entry (OE+CE): representing the motion vitality of the rat;\n(2) the ratio of the times of the open arm entry (OE %); the times of the open arm entry/(OE+CE)×100%;\n(3) the ratio of the duration of staying in the open arms (OT %), i.e. the duration of staying in the open arms/(OT+CT)×100%. Each rat is tested for 5 minutes. OE % and OT % represent the indices of the antianxiety effect."}, "Mouse [4]": {"test_system": "Mouse", "experiment": "Analysis of times of locomotor activities", "assay_type": "in vivo", "from_the_text": "The condition of the locomotor activity of an animal reflects the functional status of its central nervous system. The central stimulant drug can prominently increase the locomotor activity but decrease the exploratory behavior, and a certain dosage of antipsychotic drug can decrease the exploratory behavior without influencing the locomotor activity. A YLS-1A multi-functional mouse locomotor activity recorder is used to record the situation of locomotor activity of the mouse at different points of time after drug administration."}, "[5]": {"test_system": "Neurotransmitter in Serum of Rat", "experiment": "CSM test, level of neurotransmitter in serum", "assay_type": "in vivo", "settings": "dosage 3 mg/Kg", "from_the_text": "as §1\nAfter adaptation for one week, the rats were randomly grouped. Except the normal group, the model groups were fed in individual cages and subjected to the uncertain stimulation of drinking by an empty bottle to establish the anxiety stress models. The specific method is as follows: the training of timely feeding water lasts for 7 days, that is, water was being given to the animals for 10 minutes every day at 9:00-9:10 and 17:00-17:10, and at other times, the water bottles were taken away, without water given. After the period of timely feeding water was ended, the stress-response experiment started, wherein the uncertain stimulation of the empty bottle was given once or twice a day in the above two periods of time for two weeks. The normal group was not subjected to any treatment, and was fed with water and food freely. The behaviors observed included attacking (biting or attacking the empty bottle and the cage), exploratory (moving around and visiting the place where the water bottle was located), and grooming behaviors (combing fur and washing face). The specific method was: the 10 minutes of the empty bottle stimulation was equally divided into 10 periods of time, the above-mentioned three types of behaviors of each rat were recorded in each period of time, wherein it was marked as “1” if the behavior appears, otherwise it was marked as “0”. The total score obtained in the observation within 10 minutes was between 0 and 10. […] The average score of the first 3 days and the last 3 days of the 14 observation days was used for statistical analysis. The samples were gathered when the experiment was ended to detect the neuroendocrine and immune indices.\nThe normal control group was not subjected to any treatment; all the other groups were subjected to the stimulation.\nas §2"}},
  "data": [
    {"smiles": "CN1C(=O)CN=C(c2ccccc2)c2cc(Cl)ccc21", "note": "[DZP, diazepam]", "values": [
      {"measurement": "Grooming Behavior (%)", "setting": "Mouse [1]; negative control 2.38 ± 1.16", "value": "1.78 ± 1.06", "unit": "%"},
      {"measurement": "Exploratory Behavior (%)", "setting": "Mouse [1]; negative control 2.44 ± 0.88", "value": "1.09 ± 0.52", "unit": "%"},
      {"measurement": "Attacking Behavior (%)", "setting": "Mouse [1]; negative control 2.56 ± 2.09", "value": "0.69 ± 0.52", "unit": "%"},
      {"measurement": "NE (norepinephrine)", "setting": "[2]; n=10, negative control 0.104 ± 0.048", "value": "0.080 ± 0.053", "unit": "pg/mL"},
      {"measurement": "Dopamine", "setting": "[2]; n=10, negative control 9.542 ± .93", "value": "11.38 ± 4.33", "unit": "ng/mL"},
      {"measurement": "NA", "setting": "[2]; n=10, negative control 40.97 ± 13.25", "value": "37.22 ± 10.05", "unit": "pg/mL"},
      {"measurement": "OE + CE (times)", "setting": "Mouse [3]; EPM 5 minutes, dosage 3 mg/Kg, n=10, mean±SD, negative control 10.8 ± 3.9", "value": "12.9 ± 5.2", "unit": "times"},
      {"measurement": "OT (%)", "setting": "Mouse [3]; EPM 5 minutes, dosage 3 mg/Kg, n=10, negative control 20.1 ± 4.5, p<0.05", "value": "42.3 ± 5.7", "unit": "%"},
      {"measurement": "OE (%)", "setting": "Mouse [3]; EPM 5 minutes, dosage 3 mg/Kg, n=10, negative control 22.8 ± 5.9, p<0.05", "value": "40.9 ± 5.2", "unit": "%"},
      {"measurement": "values of OT % and OE % and total number of the times of entering arms (in words)", "setting": "Mouse [3]; EPM, with the dosage of administration", "value": "can increase the values of OT % and OE % without increasing the total number of the times of entering arms"},
      {"measurement": "Times of Locomotor Activity 15-20 min (times)", "setting": "Mouse [4]; 15-20 min after administration, dosage 3 mg/Kg, n=10, negative control 86 ± 35", "value": "48 ± 46", "unit": "times"},
      {"measurement": "Times of Locomotor Activity 30-35 min (times)", "setting": "Mouse [4]; 30-35 min after administration, dosage 3 mg/Kg, n=10, negative control 64 ± 15, p<0.05", "value": "32 ± 16", "unit": "times"},
      {"measurement": "Times of Locomotor Activity 60-65 min (times)", "setting": "Mouse [4]; 60-65 min after administration, dosage 3 mg/Kg, n=10, negative control 53 ± 9, p<0.05", "value": "24 ± 6", "unit": "times"},
      {"measurement": "times of locomotor activities of the mouse (in words)", "setting": "Mouse [4]; with the dosage of administration", "value": "prominently reduce the times of locomotor activities of the mouse at the two periods of time, namely, 30 minutes and 60 minutes"},
      {"measurement": "5-HT", "setting": "[5]; n=10, negative control 0.86 ± 0.15, p<0.05", "value": "1.12 ± 0.13", "unit": "ng/mL"},
      {"measurement": "NE", "setting": "[5]; n=10, negative control 1.15 ± 0.16", "value": "1.00 ± 0.13", "unit": "pg/mL"},
      {"measurement": "DA", "setting": "[5]; n=10, negative control 5.45 ± 0.76", "value": "6.00 ± 1.70", "unit": "ng/mL"},
      {"measurement": "NA", "setting": "[5]; n=10, negative control 15.08 ± 0.71", "value": "14.67 ± 0.36", "unit": "pg/mL"},
      {"measurement": "COR (cortisol)", "setting": "[5]; n=10, negative control 49.94 ± 7.26, p<0.05", "value": "28.94 ± 6.36", "unit": "ng/mL"}
    ]}
  ]
}
